Assay results: patent US9901637B2, “Vitamin D3 and analogs thereof for treating alopecia” (priority 2009, dated 2018)

How the values were obtained:
HEKa cells [1] = assay: Antibody microarray (Panorama XP725) of calcitriol-treated HEKa; type: cell-based, human; conditions: calcitriol-treated (24 hour), 3-hour sample as baseline
Description: Briefly, the treated HEKa cells were first harvested and then extracted to obtain a soluble protein supernatant. […] The excess dye was removed from the protein sample, and the resulting labeled protein samples were used for microarray incubation. To determine the expression level of a particular target protein at a later time point (e.g., at hour 6 or 24) relative to that at an earlier time point (e.g., at hour 3), the samples were labeled by different labels (e.g., 3-hour extract labeled with Cy3,6-hour or 24-hour extract labeled with Cy5). […] After incubation with the microarray chip (according to manufactures recommended protocols), the chips were washed and dried. The microarrays were then scanned with a fluorescent laser scanner to measure the relative fluorescence intensity of the Cy3 and Cy5 dyes. If the amount of a particular type of target protein increased (or decreased) over time, more (or less) of the dye associated with the later time point (e.g., Cy5) will be retained by the microarray. For example, in this experiment, the earliest time point (e.g., 3-hour) was used as a baseline to determine the relative protein expression level at two later time points (e.g., 6-hour vs. 24-hour). If more Cy5 is retained by the array between 6-24 hours, the expression level of the target protein increased over the time period. […]

HepG2 (liver cancer) = assay: Cell growth/viability assay, calcitriol with or without chemotherapy drug; type: cell-based
MIAC51 = assay: Survival (cure) rate of chloroleukemic rats after two rounds of chemotherapy; type: in vivo, Long Evans Rats
Description: Animals were then randomized in four groups. All rats received MIAC51 as described below.
On day 5 after birth all rats received 1×105 MIAC51 intraperitoneally in 0.1 ml of serum free (SF) RPMI. MIAC51 were cultured in RPMI 1640 supplemented with L-glutamine and 10% fetal bovine serum at […] in a 5% CO2, 100% humidity incubator. Cells were grown to 50% confluency (1.5×106 ml) collected in 50 ml conical tubes, centrifuged at 600 g for 10 minutes at room temperature and resuspended in SF-RPMI at a concentration of 1×10^6/ml prior to injection.

[2] = system: MIAC51 (chloroleukemia cells); assay: Rats transplanted with chloroleukemia: protection of cancer cells from chemotherapy; type: in vivo; conditions: Long Evans rats injected with MIAC51, cyclophosphamide; preliminary results
Description: For experiments in which rats were transplanted with chloroleukemia, on Day 5 after birth, rats were randomly divided into three groups of 45 each. All rats received 1×10^5 chloroleukemic cell line MIAC51 (i.p.) in 0.1 mL of serum free (SF) RPMI. MIAC51 were cultured in RPMI 1640 supplemented with L-glutamine and 10% fetal bovine serum at 37° C. in a 5% CO2, 100% humidity incubator. Cells were grown to 50% confluency (1.5×106 mL) collected in 50 mL conical tubes, centrifuged at 600 g×10 min. at room temperature and resuspended in SF-RPMI at a concentration of 1×10^6/mL. Group 1 rats received no further treatment. Group 2 rats received topical vehicle and CTX on day 13. […] Topical applications were performed as described above.
On day 23 after birth, a sample of blood was taken from all rats and differentials performed. Rats with leukemia were sacrificed, rats without leukemia were kept and a second differential performed on day 31, at any point if leukemia was detected, animals were sacrificed by CO2 asphyxiation.

HEKa cells [3] = assay: Pretreatment of cells with calcitriol, cell viability assay with chemotherapy drugs; type: cell-based, human
Source text: Then these pretreated cells were utilized to set up the cell-based assay. […] The four cancer cell lines continued to grow and were not altered in their general morphological appearances. […] For this cell line, a new batch of cells were started and were exposed to only a single passage in the presence of calcitriol, prior to testing in the presence of the chemotherapy drugs. Three commonly used chemotherapy drugs (doxorubicin, cisplatin and erlotinib) were selected to evaluate calcitriol treated cells. […] In these experiments, the commercial drugs were serially diluted, starting at a concentration 4-times higher than the final desired concentration for cell incubation. […] The assay was carried out according to the previously described method in order to provide consistency and allow direct comparison. The result was based upon measurement of the total number of viable cells. […] Thus, a topical application of calcitriol could be applied at the same time as the systemic delivery of the chemotherapy. A staged application is not required.

in vivo = conditions: Gottingen, minipig, topical
Source text: At the end of the study, the skin was reflected from a ventral midline incision, and sections of treated and untreated skin were collected and preserved. Sections of each 6×6 cm dosing site were first thoroughly surface washed with a mild soap and water mixture (e.g., 1% Ivory Soap in water or equivalent) to remove any residual topical test formulation. The washed skin sections were then wiped clean with ethanol, and were excised down to and including the adipose layer. If the area to be excised is larger than the dosed area, the dosed area was demarked with indelible ink to delineate the skin area that was dosed. The 1.5 cm×1.5 cm sections were laid flat, wrapped in two layers of Saran wrap (or equivalent) and flash frozen in liquid nitrogen. The samples were stored at −70° C. and shipped on dry ice via overnight courier for analysis. Each skin section was identified as appropriate (e.g., animal identification, study number, date, etc).
Upon arrival at the analysis site, skin sections were placed in water tight plastic bag and thawed by emersion in warm water (˜30° C.-35° C.). Each skin section was gently rinsed with distilled de-ionized water to remove any residual test article and blood. All subcutaneous tissue (e.g., adipose) was removed by manual scalpel ablation. Within the central region of the dosed area, four individual 1 cm^2 circles (replicates) were demarked, and each site was subsequently identified and the actual area recorded. The replicate test sites were then excised from the skin sheet using a 1 cm^2 punch. The skin sections were weighed and the weight recorded. […] This process removed the stratum corneum and any residual surface dose.
Following tape stripping, the skin was separated into epidermis (sans stratum corneum, simply referred to herein after as “epidermis”) and dermis by heat exposure to 60° C. for approximately 1-1.5 minutes. The skin layers were then teased apart using fine-tipped forceps or scalpel. The epidermis and dermis were weighed and the weight recorded.
For extraction, all skin samples were extracted in 1 mL of absolute ethanol (Sigma-Aldrich, USP/NF Grade). Tape strips were extracted in 5 mL acetonitrile (EMD, HPLC Grade). All extractions were conducted at room temperature for approximately 24 hours. An amount of 500 μL of the tape strip extract was dried by vacuum centrifugation and reconstituted in 100 μL absolute acetonitrile. The epidermal extract was also dried and reconstituted in 100 μL 80:20 ethanol:water.
Lower limit of detection is estimated at 0.4 ng/mL.
However, the concentration reported, as μg/mg, is determined by the differential total sample weight before layer separation minus the weights of the epidermis and dermis for that sample (rather than by actual weight due to its adherence to the tape strips). Epidermal and dermal samples are reported as tissue concentration (ng/mg) using the amount measured from the sample divided by actual wet weight of the skin layer.

[4] = system: PaCa2 (pancreatic carcinoma); assay: Cell growth/viability assay, calcitriol with or without chemotherapy drug; type: cell-based

Q: With `C=C1/C(=C\C=C2/CCC[C@]3(C)[C@@H]([C@H](C)CCCC(C)(C)O)CC[C@@H]23)C[C@@H](O)C[C@@H]1O` [Calcitriol, 1,25-dihydroxyvitamin D3] as the molecule, how does the “Target Proteins with Decreased (>2-fold) Protein Levels Following Calcitriol Treatment (value = protein)” value (HEKa cells [1]) read?
A: Transforming Growth Factorb pan and WAVE and Protein Tyrosine Phosphatase PEST and CD40 and Crk II and Growth Factor Independence1 and Serine Threonine Protein and Cathepsin D

Q: What about the “effect on the cytotoxic effect of Doxorubicin” value (HepG2 (liver cancer); Hep-G2) of the same molecule?
A: did not appear to appreciably alter

Q: What about the “5-FU ED50 curve with versus without calcitriol” value (HepG2 (liver cancer); Hep-G2, 0.1 μg/mL calcitriol) of the same molecule?
A: not significantly different

Q: And the “response to other drugs (doxorubucin, cisplatin, erlotinib) after calcitriol exposure” value (HepG2 (liver cancer); Hep-G2, 0.1 μg/mL calcitriol for two passages)?
A: did not alter

Q: What about the “concentrations giving calcitriol growth inhibition” value (HepG2 (liver cancer); HepG2) of the same molecule?
A: > 0.5 µg/mL

Q: And the “concentrations giving calcitriol growth stimulation” value (HepG2 (liver cancer); HepG2)?
A: 0.05 to 0.25 µg/mL

Q: And the “interference with the cure rate” value (MIAC51; cyclophosphamide and doxorubicin group, cure rate in the range of 50-55%)?
A: did not interfere with the cure rate

Q: And the “interference with the cure rate” value (MIAC51; cyclophosphamide group, cure rate in the range of 20-25%)?
A: did not interfere with the cure rate

Q: And the “interference with the cure rate” value (MIAC51; cyclophosphamide, doxorubicin and cytarabine group, cure rate in the range of 75-80%)?
A: did not interfere with the cure rate

Q: What about the “interference with the cure rate” value (MIAC51; cyclophosphamide, paclitaxel and etoposide group, cure rate in the range of 78-83%) of the same molecule?
A: did not interfere with the cure rate

Q: And the “interference with the cure rate” value (MIAC51; doxorubicin, paclitaxel and etoposide group, cure rate in the range of 80-83%)?
A: did not interfere with the cure rate

Q: What about the “protection of the cancer cells from chemotherapy by topical calcitriol” value [2] of the same molecule?
A: have not shown protection of the cancer cells

Q: And the “growth of HEKa cells after prolonged calcitriol exposure” value (HEKa cells [3]; 0.1 μg/mL calcitriol for two cell passages)?
A: stopped growing

Q: And the “chemoprotective effect, pre-treatment group versus simultaneous treatment group” value (HEKa cells [3]; 0.1 μg/mL calcitriol, doxorubicin, cisplatin, erlotinib)?
A: nearly identical

Q: And the concentration at 7 days (in vivo; female, stratum corneum (tape strips), 1 μg/mL)?
A: 30 ± 50 ng/g

Q: And the concentration at 7 days (in vivo; female, stratum corneum (tape strips), 3 μg/mL)?
A: 40 ± 60 ng/g

Q: What about the concentration at 7 days (in vivo; female, stratum corneum (tape strips), 10 μg/mL) of the same molecule?
A: 50 ± 40 ng/g

Q: What about the concentration at 7 days (in vivo; female, stratum corneum (tape strips), 30 μg/mL) of the same molecule?
A: 640 ± 370 ng/g

Q: And the concentration at 7 days (in vivo; female, 1 μg/mL)?
A: 0 ng/g

Q: And the concentration at 7 days (in vivo; female, 3 μg/mL)?
A: 0 ng/g

Q: And the concentration at 7 days (in vivo; male, stratum corneum (tape strips), 1 μg/mL)?
A: 1540 ± 790 ng/g

Q: What about the concentration at 7 days (in vivo; male, stratum corneum (tape strips), 3 μg/mL) of the same molecule?
A: 1630 ± 250 ng/g

Q: What about the concentration at 7 days (in vivo; male, stratum corneum (tape strips), 10 μg/mL) of the same molecule?
A: 2020 ± 390 ng/g

Q: What about the concentration at 7 days (in vivo; male, stratum corneum (tape strips), 30 μg/mL) of the same molecule?
A: 1510 ± 890 ng/g

Q: And the concentration at 7 days (in vivo; male, stratum corneum (tape strips), 100 μg/mL)?
A: 4520 ± 1210 ng/g

Q: What about the “effect of calcitriol on cell growth” value ([4]; PaCa2) of the same molecule?
A: no significant growth promoting or growth inhibiting effects

Q: And the “effect on the cytotoxic effect of Doxorubicin” value ([4]; PaCa-2)?
A: did not appear to appreciably alter

Q: And the “5-FU ED50 curve with versus without calcitriol” value ([4]; PaCa-2, 0.1 μg/mL calcitriol)?
A: not significantly different

Q: What about the “response to other drugs (doxorubucin, cisplatin, erlotinib) after calcitriol exposure” value ([4]; PaCa-2, 0.1 μg/mL calcitriol for two passages) of the same molecule?
A: did not alter
